Test results from the supplement of paper PMC11208160.

Assay: recombinant UMI read abundance after kanamycin selection (control-corrected) (log10(CPM+1)); higher = more efficient recombination; extreme values may be limits of the assay; sequences stand for … in AGTGCAGAGAAAATCGGCCAGTTTTCTCTGCCTGCAGTCCGCATGCCGTGGGACCCCTTGGGTTCTAACCTGTTGCCTAGATTTATGCAGCGGACTGCCTTTCTCCCAAAGTGATAAACCGG…AGGTTGGTTTCACT; site = the 11-nt donor
In short: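 Each donor and donor-binding-loop pair was tracked by a 12-nt UMI on a plasmid carrying a promoterless kanamycin gene. With a second plasmid supplying a fixed target and T7-inducible IS621 bridge recombinase, the pool was plated in Escherichia coli on IPTG (0.07 mM) plus kanamycin or unselected. Sequencing of recombinant UMIs across the donor–target junction gave counts expressed as log10(CPM+1) after replicate averaging and control-derived scaling.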

Row | Sequence | recombinant UMI read abundance (log10)
1 | GGGCCACCATGGACCGGTTTTCCCGGTAATCCGTATTTGCA (site GGGTCACCTTG) | 0.00812
2 | GGGCCTACATGGACCGGTTTTCCCGGTAATCCGTATTTGCT (site GGGCCTACTAG) | 1.86
3 | GGGCCTGCATGGACCGGTTTTCCCGGTAATCCGTATTTGTG (site GGGCCTGCTCA) | 0.38
4 | GGGCGAACATGGACCGGTTTTCCCGGTAATCCGTATTTGGA (site GGGCGAACTTC) | 0.799
5 | GGGCGTCCATGGACCGGTTTTCCCGGTAATCCGTATTTGCA (site GGGCGTCCTTG) | 2.59
6 | GGGCGTCCATGGACCGGTTTTCCCGGTAATCCGTATTTGGT (site GGGCGTCCTAC) | 0
7 | GGGCTTGCATGGACCGGTTTTCCCGGTAATCCGTATTTGGA (site GGGCTTGCTTC) | 0.564
8 | GGGGAATCATGGACCGGTTTTCCCGGTAATCCGTATTTGGT (site GGGGAATCTAC) | 0.628
9 | GGGGAGGCATGGACCGGTTTTCCCGGTAATCCGTATTTGTG (site GAGGAGGCTCA) | 0
10 | GGGGAGGCATGGACCGGTTTTCCCGGTAATCCGTATTTGTG (site GCGGAGGCTCA) | 0.00803
11 | GGGGAGGCATGGACCGGTTTTCCCGGTAATCCGTATTTGTG (site GGGGAGGCTCA) | 0.851
12 | GGGGAGGCATGGACCGGTTTTCCCGGTAATCCGTATTTGTG (site GTGGAGGCTCA) | 0.134
13 | GGGGAGTCATGGACCGGTTTTCCCGGTAATCCGTATTTGCC (site AGGGAGTCTGG) | 1.14
14 | GGGGAGTCATGGACCGGTTTTCCCGGTAATCCGTATTTGCC (site CGGGAGTCTGG) | 0
15 | GGGGAGTCATGGACCGGTTTTCCCGGTAATCCGTATTTGCC (site GGGGAGTCTGG) | 1.78
16 | GGGGAGTCATGGACCGGTTTTCCCGGTAATCCGTATTTGCC (site TGGGAGTCTGG) | 1.02
17 | GGGGCACCATGGACCGGTTTTCCCGGTAATCCGTATTTGCG (site GGGGCACCTAG) | 0.0129
18 | GGGGCACCATGGACCGGTTTTCCCGGTAATCCGTATTTGCG (site GGGGCACCTCG) | 0.0566
19 | GGGGCACCATGGACCGGTTTTCCCGGTAATCCGTATTTGCG (site GGGGCACCTGG) | 0
20 | GGGGCACCATGGACCGGTTTTCCCGGTAATCCGTATTTGCG (site GGGGCACCTTG) | 0
21 | GGGGCACCATGGACCGGTTTTCCCGGTAATCCGTATTTGCT (site GGGGCACCTAG) | 0
22 | GGGGCACCATGGACCGGTTTTCCCGGTAATCCGTATTTGCT (site GGGGCACCTCG) | 0.0126
23 | GGGGCACCATGGACCGGTTTTCCCGGTAATCCGTATTTGCT (site GGGGCACCTGG) | 0
24 | GGGGCACCATGGACCGGTTTTCCCGGTAATCCGTATTTGCT (site GGGGCACCTTG) | 0
25 | GGGGCACCATGGACCGGTTTTCCCGGTAATCCGTATTTGGA (site GGGGCACCTTA) | 0

Row | Sequence | recombinant UMI read abundance (log10)
26 | GGGGCACCATGGACCGGTTTTCCCGGTAATCCGTATTTGGA (site GGGGCACCTTC) | 0.0209
27 | GGGGCACCATGGACCGGTTTTCCCGGTAATCCGTATTTGGA (site GGGGCACCTTG) | 0
28 | GGGGCACCATGGACCGGTTTTCCCGGTAATCCGTATTTGGA (site GGGGCACCTTT) | 0.0158
29 | GGGGCATCATGGACCGGTTTTCCCGGTAATCCGTATTTGCA (site GGGGCAACTTG) | 0
30 | GGGGCATCATGGACCGGTTTTCCCGGTAATCCGTATTTGCA (site GGGGCACCTTG) | 0
31 | GGGGCATCATGGACCGGTTTTCCCGGTAATCCGTATTTGCA (site GGGGCAGCTTG) | 0
32 | GGGGCATCATGGACCGGTTTTCCCGGTAATCCGTATTTGCA (site GGGGCATCTTG) | 2.13
33 | GGGGTTCCATGGACCGGTTTTCCCGGTAATCCGTATTTGAA (site GGGGTTCCTTT) | 0
34 | GGGTACTCATGGACCGGTTTTCCCGGTAATCCGTATTTGCT (site GGGTACTCTAG) | 3.34
35 | GGGTTCCCATGGACCGGTTTTCCCGGTAATCCGTATTTGTG (site AGGTTCCCTCA) | 0.00854
36 | GGGTTCCCATGGACCGGTTTTCCCGGTAATCCGTATTTGTG (site CGGTTCCCTCA) | 0.0144
37 | GGGTTCCCATGGACCGGTTTTCCCGGTAATCCGTATTTGTG (site GGGTTCCCTCA) | 0.00899
38 | GGGTTCCCATGGACCGGTTTTCCCGGTAATCCGTATTTGTG (site TGGTTCCCTCA) | 0.0194
39 | GGTAAACCATGGACCGGTTTTCCCGGTAATCCGTATTTGAT (site GGTAAACCTAT) | 0
40 | GGTAAGCCATGGACCGGTTTTCCCGGTAATCCGTATTTGGG (site GGTAAGCCTCC) | 0.023
41 | GGTACAACATGGACCGGTTTTCCCGGTAATCCGTATTTGTA (site GGTACAACTTA) | 0.0152
42 | GGTACAACATGGACCGGTTTTCCCGGTAATCCGTATTTGTA (site GGTCCAACTTA) | 0.00335
43 | GGTACAACATGGACCGGTTTTCCCGGTAATCCGTATTTGTA (site GGTGCAACTTA) | 0.0119
44 | GGTACAACATGGACCGGTTTTCCCGGTAATCCGTATTTGTA (site GGTTCAACTTA) | 0.0127
45 | GGTACGCCATGGACCGGTTTTCCCGGTAATCCGTATTTGTT (site GGTACGACTAA) | 0.0526
46 | GGTACGCCATGGACCGGTTTTCCCGGTAATCCGTATTTGTT (site GGTACGCCTAA) | 0.0149
47 | GGTACGCCATGGACCGGTTTTCCCGGTAATCCGTATTTGTT (site GGTACGGCTAA) | 0.0123
48 | GGTACGCCATGGACCGGTTTTCCCGGTAATCCGTATTTGTT (site GGTACGTCTAA) | 0.426
49 | GGTACGTCATGGACCGGTTTTCCCGGTAATCCGTATTTGAT (site GGTACGTCTAA) | 0.0132
50 | GGTACGTCATGGACCGGTTTTCCCGGTAATCCGTATTTGAT (site GGTACGTCTAC) | 0.00659

Row | Sequence | recombinant UMI read abundance (log10)
51 | GGTACGTCATGGACCGGTTTTCCCGGTAATCCGTATTTGAT (site GGTACGTCTAG) | 0
52 | GGTACGTCATGGACCGGTTTTCCCGGTAATCCGTATTTGAT (site GGTACGTCTAT) | 0.46
53 | GGTACGTCATGGACCGGTTTTCCCGGTAATCCGTATTTGTA (site GGTACGTCTAA) | 0.0713
54 | GGTACGTCATGGACCGGTTTTCCCGGTAATCCGTATTTGTA (site GGTACGTCTCA) | 0.00737
55 | GGTACGTCATGGACCGGTTTTCCCGGTAATCCGTATTTGTA (site GGTACGTCTGA) | 0
56 | GGTACGTCATGGACCGGTTTTCCCGGTAATCCGTATTTGTA (site GGTACGTCTTA) | 0.651
57 | GGTACTGCATGGACCGGTTTTCCCGGTAATCCGTATTTGCC (site GATACTGCTGG) | 0
58 | GGTACTGCATGGACCGGTTTTCCCGGTAATCCGTATTTGCC (site GCTACTGCTGG) | 0.662
59 | GGTACTGCATGGACCGGTTTTCCCGGTAATCCGTATTTGCC (site GGTACTGCTGG) | 1.58
60 | GGTACTGCATGGACCGGTTTTCCCGGTAATCCGTATTTGCC (site GTTACTGCTGG) | 0
61 | GGTATGTCATGGACCGGTTTTCCCGGTAATCCGTATTTGTT (site GGTAAGTCTAA) | 0.00575
62 | GGTATGTCATGGACCGGTTTTCCCGGTAATCCGTATTTGTT (site GGTACGTCTAA) | 0.0321
63 | GGTATGTCATGGACCGGTTTTCCCGGTAATCCGTATTTGTT (site GGTAGGTCTAA) | 0.00327
64 | GGTATGTCATGGACCGGTTTTCCCGGTAATCCGTATTTGTT (site GGTATGTCTAA) | 0.586
65 | GGTATTACATGGACCGGTTTTCCCGGTAATCCGTATTTGAG (site GGTATTACTCT) | 0
66 | GGTCACACATGGACCGGTTTTCCCGGTAATCCGTATTTGTC (site GGTCACACTGA) | 2.3
67 | GGTCACCCATGGACCGGTTTTCCCGGTAATCCGTATTTGTT (site GGACACCCTAA) | 0
68 | GGTCACCCATGGACCGGTTTTCCCGGTAATCCGTATTTGTT (site GGCCACCCTAA) | 0.0117
69 | GGTCACCCATGGACCGGTTTTCCCGGTAATCCGTATTTGTT (site GGGCACCCTAA) | 0.0126
70 | GGTCACCCATGGACCGGTTTTCCCGGTAATCCGTATTTGTT (site GGTCACCCTAA) | 0.00231
71 | GGTCAGCCATGGACCGGTTTTCCCGGTAATCCGTATTTGGG (site GGTCAGCCTCC) | 0.00726
72 | GGTCCAACATGGACCGGTTTTCCCGGTAATCCGTATTTGCA (site GGTCCAACTTA) | 0.0117
73 | GGTCCAACATGGACCGGTTTTCCCGGTAATCCGTATTTGCA (site GGTCCAACTTC) | 0.107
74 | GGTCCAACATGGACCGGTTTTCCCGGTAATCCGTATTTGCA (site GGTCCAACTTG) | 0
75 | GGTCCAACATGGACCGGTTTTCCCGGTAATCCGTATTTGCA (site GGTCCAACTTT) | 0.0134
